Measured values as given in patent US20130261114A1, “COMPOUNDS USEFUL AS INHIBITORS OF CHOLINE KINASE” (priority 2011, published 2013).
“And” between values parts separate entries of the source, which are not always exact repeats. Identical values can stand only once.

Molecular target: T1, Choline Kinase alpha enzyme (Homo sapiens, UniProt P35790)
T1 construct: hChoKα1 (M1-V457) (NP_001268); GST (N); made in house; host or cells: E. coli BL21(DE3)
Experiment: Choline Kinase Alpha Inhibition Assay
Format: biochemical
Conditions: 20 nM enzyme, 200 μM choline chloride, 400 μM ATP, 25° C., coupled NADH absorbance at 340 nm; read-out: IC50 values (inhibiting Choline Kinase Alpha)
Procedure: An assay buffer solution was prepared which consisted of 100 mM Tris-HCl (pH 7.5), 100 mM KCl, and 10 mM MgCl2. An enzyme buffer containing reagents to final assay concentrations of 290 μM NADH, 2.4 mM phosphoenolpyruvate, 60 μg/mL pyruvate kinase, 20 μg/mL lactate dehydrogenase, 200 μM choline chloride substrate and 20 nM Choline Kinase alpha enzyme was prepared in assay buffer. To 32 μL of this enzyme buffer, in a 96 well plate, was added 2 μL of VRT stock solution in DMSO. The mixture was allowed to equilibrate for 10 mins at 25° C. The enzyme reaction was initiated by the addition of 32 μL stock ATP solution prepared in assay buffer to a final assay concentration of 400 μM. Initial rate data was determined from the rate of change of absorbance at 340 nm (corresponding to stoichiometric consumption of NADH) using a Molecular Devices Spectramax plate reader (Sunnyvale, Calif.) over 15 mins at 25° C. For each IC50 determination, 12 data points covering the VRT concentration range of 0-100 μM were obtained in duplicate (DMSO stocks were prepared from an initial 10 mM VRT stock with subsequent 1:2.5 serial dilutions). IC50 values were calculated from initial rate data using the Prism software package (Prism 4.0a, Graphpad Software, San Diego, Calif.).
hChoKα1 (M1-V457) (NP_001268) was codon optimized for E. coli and cloned into a modified pGEX-2T vector. Recombinant GST-tagged ChoKα1 protein was produced in E. coli strain BL21(DE3). After growing cell cultures at 37° C. until the OD600=1, the cultures were induced with 1 mM IPTG for 16 h at 30° C. and the cells were harvested as a pellet (8500 rpm, 4° C., 20 min). The protein was purified using glutathione affinity purification followed by size exclusion via Superdex-200 26/60 (GE Healthcare). See Malito, Enrico et. al., “Journal of Molecular Biology”, Volume 364, Issue 2, pages 136-151 (November 2006).

T1 sequence (P35790 whole entry): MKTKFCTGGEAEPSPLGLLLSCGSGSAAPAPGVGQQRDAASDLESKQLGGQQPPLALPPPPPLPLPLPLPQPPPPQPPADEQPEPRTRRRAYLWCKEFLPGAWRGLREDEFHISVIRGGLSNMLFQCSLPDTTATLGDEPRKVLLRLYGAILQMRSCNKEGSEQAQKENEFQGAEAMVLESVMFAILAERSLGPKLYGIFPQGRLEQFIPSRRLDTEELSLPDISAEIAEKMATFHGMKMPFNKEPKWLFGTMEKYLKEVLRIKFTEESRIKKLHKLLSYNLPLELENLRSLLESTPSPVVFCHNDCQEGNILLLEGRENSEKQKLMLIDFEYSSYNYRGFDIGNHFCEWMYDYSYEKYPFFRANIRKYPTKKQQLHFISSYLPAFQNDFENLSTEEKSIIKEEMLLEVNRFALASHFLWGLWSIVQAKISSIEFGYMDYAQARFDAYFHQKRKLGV

Q: `OC(c1ccccc1)(c1ccccc1Cl)C1C[N@]2CC[C@@H]1CC2` (some centres unmarked) [Compound I-85] was tested. Which IC50 did it give?
A: 0.1 to 1 µM

Q: With `OC(c1ccccc1)(c1ccccc1)C1CN2CCC1CC2` (centres unmarked) [Compound I-87] as the compound, how does the IC50 read?
A: 0.1 to 1 µM

Q: How did the IC50 turn out when `OC(c1ccccc1)(c1ccc(Cl)cc1)C1C[N@]2CC[C@@H]1CC2` (some centres unmarked) [Compound I-86] was run?
A: 0.1 to 1 µM

Q: With `OC(Cc1ccccc1)(Cc1ccccc1)C1CN2CCC1CC2` (centres unmarked) [Compound I-83] as the compound, how does the IC50 read?
A: 1 to 75 µM

Q: How did the IC50 turn out when `CN(C)c1ccc(C(O)(c2ccc(N(C)C)cc2)C2CN3CCC2CC3)cc1` (centres unmarked) [Compound I-79] was run?
A: 0.1 to 1 µM and 1 to 75 µM

Q: `OC(Cc1ccccc1)(c1ccccc1)C1CN2CCC1CC2` (centres unmarked) [Compound I-80] was tested. Which IC50 did it give?
A: 0.1 to 1 µM

Q: How did the IC50 turn out when `CN(C)c1ccc(CCC(O)(c2ccc(N(C)C)cc2)C2CN3CCC2CC3)cc1` (centres unmarked) [Compound I-17] was run?
A: 1 to 75 µM

Q: Which IC50 does the source give for `OC(c1ccc(Cl)s1)(c1ccc(Cl)s1)C1CN2CCC1CC2` (centres unmarked) [Compound I-81] here?
A: 0.1 to 1 µM

Q: `Cc1ccccc1C(O)(Cc1ccccc1)C1CN2CCC1CC2` (single isomer, unassigned) [Compound I-78, 1-(o-tolyl)-2-phenyl-1-quinuclidin-3-yl-ethanol] was tested. Which IC50 did it give?
A: < 0.1 µM

Q: Which IC50 does the source give for `Cc1ccccc1C(O)(Cc1ccccc1)C1CN2CCC1CC2` (single isomer, unassigned) [Compound I-84, 1-(o-tolyl)-2-phenyl-1-quinuclidin-3-yl-ethanol] here?
A: 1 to 75 µM

Q: For `OC(c1cccc(Cl)c1)(c1cccc(Cl)c1)C1CN2CCC1CC2` (centres unmarked) [Compound I-82], which IC50 is on record?
A: 1 to 75 µM
